Consider 21 molecules from US9365522B2, “Pyrazole amide derivative” (AMGEN INC., priority 2015, dated 2016).

SMILES strings stand for the structures.

This assay concerns the target T1, human RORγ-LBD (Homo sapiens, UniProt P51449).
T1 construct: made in house; host or cells: E. coli (BL-21)
T1 sequence (P51449 262-518): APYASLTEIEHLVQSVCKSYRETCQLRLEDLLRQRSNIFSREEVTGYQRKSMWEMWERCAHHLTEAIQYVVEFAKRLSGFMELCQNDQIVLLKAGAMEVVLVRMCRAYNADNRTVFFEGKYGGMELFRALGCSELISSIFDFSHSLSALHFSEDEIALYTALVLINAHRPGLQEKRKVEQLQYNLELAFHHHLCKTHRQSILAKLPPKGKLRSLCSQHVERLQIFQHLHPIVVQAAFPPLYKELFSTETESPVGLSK
The assay is described as follows: ROR gamma coactivator peptide recruitment Alphascreen assay (RORγ-LBD binding to GRIP1 coactivator peptide). The following applies: 5 nM human RORγ-LBD, 30 nM 7-β-hydroxycholesterol, 50 nM biotinylated GRIP1 coactivator peptide, overnight incubation at room temperature; read-out: result (pIC50, RORγ coactivator peptide recruitment Alphascreen assay) (converted). In kind it is biochemical. Put shortly: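 Alphascreen proximity read-out after overnight room-temperature incubation, yielding pIC50 from 1-in-2 compound series (2.5% DMSO final). Mixture: 50 nM biotin-GRIP1 peptide, 30 nM 7-β-hydroxycholesterol agonist, 5 nM recombinant 6×His:Flag human RORγ-LBD (aa 262-518), 50 mM HEPES pH 7.4.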
Consider `C[C@]1(C(=O)O)CC[C@H](n2ncc(C(=O)N(CC(=O)c3c(Cl)cncc3Cl)CC3(F)CC3)c2C(F)(F)F)CC1` [Example 593, trans-4-(4-((2-(3,5-dichloro-4-pyridinyl)-2-oxoethyl)((1-fluorocyclopropyl)methyl)carbamoyl)-5-(trifluoromethyl)-1H-pyrazol-1-yl)-1-methylcyclohexanecarboxylic acid], for which the IC50 is 33.1 nM. In the case of `C[C@]1(C(=O)O)CC[C@H](n2ncc(C(=O)N(CC(=O)c3c(Cl)cncc3Cl)CC3CC(F)(F)C3)c2C(F)(F)F)CC1` [Example 594, trans-4-(4-((2-(3,5-dichloro-4-pyridinyl)-2-oxoethyl)((3,3-difluorocyclobutyl)methyl)carbamoyl)-5-(trifluoromethyl)-1H-pyrazol-1-yl)-1-methylcyclohexanecarboxylic acid], the IC50 was 74.1 nM. On to `CC1(C)CC(CN(CC(=O)c2c(F)cccc2Cl)C(=O)c2cnn([C@H]3CC[C@](C)(C(=O)O)CC3)c2C(F)(F)F)C1` [Example 595, trans-4-(4-((2-(2-chloro-6-fluorophenyl)-2-oxoethyl)((3,3-dimethylcyclobutyl)methyl)carbamoyl)-5-(trifluoromethyl)-1H-pyrazol-1-yl)-1-methylcyclohexanecarboxylic acid], for which the IC50 is 5.62 nM.

Regarding `CC1(C)CC(CN(CC(=O)c2c(F)cccc2Cl)C(=O)c2cnn([C@H]3CC[C@@H](C(=O)O)CC3)c2C(F)(F)F)C1` [Example 596, cis-4-(4-((2-(2-chloro-6-fluorophenyl)-2-oxoethyl)((3,3-dimethylcyclobutyl)methyl)carbamoyl)-5-(trifluoromethyl)-1H-pyrazol-1-yl)cyclohexanecarboxylic acid], the IC50 is 151 nM. For `CC1(C)CC(CN(CC(=O)c2c(F)cccc2F)C(=O)c2cnn([C@H]3CC[C@@H](C(=O)O)CC3)c2C(F)(F)F)C1` [Example 597, cis-4-(4-((2-(2,6-difluorophenyl)-2-oxoethyl)((3,3-dimethylcyclobutyl)methyl)carbamoyl)-5-(trifluoromethyl)-1H-pyrazol-1-yl)cyclohexanecarboxylic acid], the IC50 was 2400 nM. As to `CC1(C)CC(CN(CC(=O)c2c(F)cccc2F)C(=O)c2cnn([C@H]3CC[C@](C)(C(=O)O)CC3)c2C(F)(F)F)C1` [Example 598, trans-4-(4-((2-(2,6-difluorophenyl)-2-oxoethyl)((3,3-dimethylcyclobutyl)methyl)carbamoyl)-5-(trifluoromethyl)-1H-pyrazol-1-yl)-1-methylcyclohexanecarboxylic acid], the IC50 was 115 nM.

As to `CC1(C)CC(N(CC(=O)c2c(Cl)cccc2Cl)C(=O)c2cnn([C@H]3CC[C@](C)(C(=O)O)CC3)c2C(F)(F)F)C1` [Example 599, trans-4-(4-((2-(2,6-dichlorophenyl)-2-oxoethyl)(3,3-dimethylcyclobutyl)carbamoyl)-5-(trifluoromethyl)-1H-pyrazol-1-yl)-1-methylcyclohexanecarboxylic acid], the IC50 was 13.8 nM. Regarding `CC1(C)CC(N(CC(=O)c2c(Cl)cccc2Cl)C(=O)c2cnn([C@H]3CC[C@@H](C(=O)O)CC3)c2C(F)(F)F)C1` [Example 600, cis-4-(4-((2-(2,6-dichlorophenyl)-2-oxoethyl)(3,3-dimethylcyclobutyl)carbamoyl)-5-(trifluoromethyl)-1H-pyrazol-1-yl)cyclohexanecarboxylic acid], the IC50 was 794 nM. For `CC1(C)C[C@H](CN(CC(=O)c2c(Cl)cccc2Cl)C(=O)c2cnn([C@H]3CC[C@](C)(C(=O)O)CC3)c2C(F)(F)F)O1` [Example 601, trans-4-(4-((2-(2,6-dichlorophenyl)-2-oxoethyl)(((2R)-4,4-dimethyl-2-oxetanyl)methyl)carbamoyl)-5-(trifluoromethyl)-1H-pyrazol-1-yl)-1-methylcyclohexanecarboxylic acid] the value was 42.7 nM; for `COc1cccc(F)c1C(=O)CN(CC1CC(C)(C)C1)C(=O)c1cnn([C@H]2CC[C@](C)(C(=O)O)CC2)c1C(F)(F)F` [Example 602, trans-4-(4-(((3,3-dimethylcyclobutyl)methyl)(2-(2-fluoro-6-methoxyphenyl)-2-oxoethyl)carbamoyl)-5-(trifluoromethyl)-1H-pyrazol-1-yl)-1-methylcyclohexanecarboxylic acid], 174 nM. For the molecule `CC1(C)CC(CN(CC(=O)c2ccccc2C#N)C(=O)c2cnn([C@H]3CC[C@](C)(C(=O)O)CC3)c2C(F)(F)F)C1` [Example 604, trans-4-(4-((2-(2-cyanophenyl)-2-oxoethyl)((3,3-dimethylcyclobutyl)methyl)carbamoyl)-5-(trifluoromethyl)-1H-pyrazol-1-yl)-1-methylcyclohexanecarboxylic acid], the IC50 is 6610 nM. In the case of `CC(C)(C)C[C@H](CO)N(CCc1c(Cl)cccc1Cl)C(=O)c1cnn([C@H]2CC[C@](C)(C(=O)O)CC2)c1C(F)(F)F` [Example 605, trans-4-(4-((2-(2,6-dichlorophenyl)ethyl)((2R)-1-hydroxy-4,4-dimethyl-2-pentanyl)carbamoyl)-5-(trifluoromethyl)-1H-pyrazol-1-yl)-1-methylcyclohexanecarboxylic acid], the IC50 is 151 nM. Then `C[C@]1(C(=O)O)CC[C@H](n2ncc(C(=O)N(CCc3c(Cl)cncc3Cl)CC3(F)CCCC3)c2C(F)(F)F)CC1` [Example 606, trans-4-(4-((2-(3,5-dichloro-4-pyridinyl)ethyl)((1-fluorocyclopentyl)methyl)carbamoyl)-5-(trifluoromethyl)-1H-pyrazol-1-yl)-1-methylcyclohexanecarboxylic acid], with 4.47 nM; and `COc1cccc(F)c1C(=O)CN(C(=O)c1cnn([C@H]2CC[C@](C)(C(=O)O)CC2)c1C(F)(F)F)C1CCC(C)(C)CC1` [Example 607, trans-4-(4-((4,4-dimethylcyclohexyl)(2-(2-fluoro-6-methoxyphenyl)-2-oxoethyl)carbamoyl)-5-(trifluoromethyl)-1H-pyrazol-1-yl)-1-methylcyclohexanecarboxylic acid], with 105 nM. `COc1cccc(F)c1C(=O)CN(CC1(F)CCCC1)C(=O)c1cnn([C@H]2CC[C@](C)(C(=O)O)CC2)c1C(F)(F)F` [Example 608, trans-4-(4-(((1-fluorocyclopentyl)methyl)(2-(2-fluoro-6-methoxyphenyl)-2-oxoethyl)carbamoyl)-5-(trifluoromethyl)-1H-pyrazol-1-yl)-1-methylcyclohexanecarboxylic acid]: the IC50 was 123 nM. In the case of `CC1(C)[C@@H]2C[C@H](N(CC(=O)c3c(Cl)cccc3Cl)C(=O)c3cnn([C@H]4CC[C@H](C(=O)O)CC4)c3C(F)(F)F)C[C@@H]21` [Example 610, cis-4-(4-((2-(2,6-dichlorophenyl)-2-oxoethyl)((1R,3r,5S)-6,6-dimethylbicyclo[3.1.0]hex-3-yl)carbamoyl)-5-(trifluoromethyl)-1H-pyrazol-1-yl)cyclohexanecarboxylic acid], the IC50 was 12.3 nM. With `C[C@]1(C(=O)O)CC[C@H](n2ncc(C(=O)N(CC(=O)c3c(Cl)cccc3Cl)CC3(F)CC3)c2C(F)(F)F)CC1` [Example 611, trans-4-(4-((2-(2,6-dichlorophenyl)-2-oxoethyl)((1-fluorocyclopropyl)methyl)carbamoyl)-5-(trifluoromethyl)-1H-pyrazol-1-yl)-1-methylcyclohexanecarboxylic acid], the IC50 was 6.03 nM. On to `C[C@]12CC[C@](CN(CC(=O)c3c(Cl)cccc3Cl)C(=O)c3cnn([C@H]4CC[C@](C)(C(=O)O)CC4)c3C(F)(F)F)(CC1)C2` [Example 612, trans-4-(4-((2-(2,6-dichlorophenyl)-2-oxoethyl)(((1r,4r)-4-methylbicyclo[2.2.1]hept-1-yl)methyl)carbamoyl)-5-(trifluoromethyl)-1H-pyrazol-1-yl)-1-methylcyclohexanecarboxylic acid], for which the IC50 is 39.8 nM.

In the case of `O=C(CN(C(=O)c1cnn([C@H]2CC[C@@H](C(=O)O)CC2)c1C(F)(F)F)C1CC2(CCC2)C1)c1c(Cl)cccc1Cl` [Example 613, cis-4-(4-((2-(2,6-dichlorophenyl)-2-oxoethyl)(spiro[3.3]hept-2-yl)carbamoyl)-5-(trifluoromethyl)-1H-pyrazol-1-yl)cyclohexanecarboxylic acid], the IC50 is 110 nM. Take `C[C@H]1CC[C@H](CN(CC(=O)c2c(Cl)cncc2Cl)C(=O)c2cnn([C@H]3CC[C@](C)(C(=O)O)CC3)c2C(F)(F)F)O1` [Example 614, trans-4-(4-((2-(3,5-dichloro-4-pyridinyl)-2-oxoethyl)(((2R,5R)-5-methyltetrahydro-2-furanyl)methyl)carbamoyl)-5-(trifluoromethyl)-1H-pyrazol-1-yl)-1-methylcyclohexanecarboxylic acid]: the IC50 was 53.7 nM. Take `C[C@]12CC[C@](CN(CC(=O)c3c(Cl)cccc3Cl)C(=O)c3cnn([C@H]4CC[C@@H](C(=O)O)CC4)c3C(F)(F)F)(CC1)C2` [Example 615, cis-4-(4-((2-(2,6-dichlorophenyl)-2-oxoethyl)(((1r,4r)-4-methylbicyclo[2.2.1]hept-1-yl)methyl)carbamoyl)-5-(trifluoromethyl)-1H-pyrazol-1-yl)cyclohexanecarboxylic acid]: the IC50 was 49 nM.
